From paper PMC6272992, “Synthesis and Cytotoxic Effect of Some Novel 1,2-Dihydropyridin-3-carbonitrile and Nicotinonitrile Derivatives” (Molecules, 2015) come the findings set out here.

The subject of data set [1] is MCF-7 (breast adenocarcinoma). Nature of the data set: SRB cancer cell growth assay, MCF-7. In kind it is cell-based, human. Also noted: key to activity class MCF-7: highly active; b: moderately active; weakly active. The conditions noted are these: for IC50: Homo sapiens, MCF7, MCF-7, 48 h exposure, SRB, read-out: IC50 (μg/mL) MCF-7. As to the method: (§1) The in vitro cytotoxic activity the newly synthesized compounds against human breast cell line (MCF7), non-small cell lung cancer NCI-H460, CNS cancer SF-268 and WI 38 (normal fibroblast cells) were evaluated using doxorubicin as the reference drug, according to the method reported by Skehan et al..
(§2) The newly synthesized compounds were evaluated in vitro against three human cancer cell lines; which are MCF-7 (breast adenocarcinoma), NCI-H460 (non-small cell lung cancer) and SF-268 (CNS cancer), and WI 38 (normal fibroblast cells) were used in this study. MCF-7 was obtained from the European Collection of Cell Cultures (ECACC, Salisbury, UK) but NCI-H460, SF-268 and WI 38 were kindly provided by the National Cancer Institute (NCI, Cairo, Egypt). They grow as monolayers routinely maintained in RPMI-1640 medium supplemented with 5% heat inactivated fetal bovine serum (FBS), 2 mM glutamine and antibiotics (penicillin 100 U/mL, streptomycin 100 µg/mL), at 37 °C in a humidified atmosphere containing 5% CO2. Exponentially growing cells were obtained by plating 1.5 × 10^5 cells/mL for MCF-7 and SF-268, and 0.75 × 10^4 cells/mL for NCI-H460 followed by 24 h of incubation. The effect of the vehicle solvent (DMSO) on the growth of these cell lines was evaluated in all experiments by exposing untreated control cells to the maximum concentration (0.5%) of DMSO used in each assay.
(§3) The effect of compounds on the in vitro growth of human tumor cell lines were evaluated according to the procedure adopted by the National Cancer Institute (NCI, […], USA) in the “In vitro Anticancer Drug Discovery Screen” that uses the protein-binding dye sulforhodamine B (SRB) to assess cell growth. In the assay protocol, all cells were incubated at 37 °C under humidified atmosphere containing 5% CO2. Briefly, exponentially cells growing in 96-well plates were then exposed for 48 h to five serial concentrations of each compound, starting from a maximum concentration of 150 μg/mL. Following this exposure period, adherent cells were fixed, washed and stained. The bound stain was solubilized and the absorbance was measured at 492 nm in a Power Wave XS plate reader (Bio-Tek Instruments Inc., Winston, NC, USA). For each test compound and cell line, a dose response curve was obtained and the inhibitory concentration of 50% (IC50), corresponding to the concentration of the compounds that inhibited 50% of the net cell growth was calculated as described elsewhere. Doxorubicin was used as a positive control and tested in the same manner.

In data set [2] the test system is NCI-H460 (non-small cell lung cancer). Kind of data set: SRB cancer cell growth assay, NCI-H460. In kind it is cell-based, human. Also noted: key to activity class NCI-H460: highly active; b: moderately active; weakly active. The conditions noted are these: for IC50: Homo sapiens, NCI-H460, 48 h exposure, SRB, read-out: IC50 (μg/mL) NCI-H460. The procedure:
as §1, §2, §3

The subject of a further data set is SF-268 (CNS cancer). Nature of the data set: SRB cancer cell growth assay, SF-268. To be noted: for IC50: Homo sapiens, SF-268, 48 h exposure, SRB, read-out: IC50 (μg/mL) SF-268. Set-up: key to activity class SF-268: highly active; b: moderately active; weakly active. Format: cell-based, human. The procedure:
as §1, §2, §3

Data set [3] has as its system WI 38 (normal fibroblast cells). Kind of data set: SRB cell growth assay, normal cells WI 38. The conditions noted are these: Homo sapiens, 48 h exposure, non-cytotoxic = IC50 > 100 μg/mL. Format: cell-based, human. As to the method:
as §1, §2, §3

SMILES strings stand for the structures. In brackets after ≈: the same amount, converted by molar mass.

For `CC1=NN(c2nc(-c3ccc(Cl)cc3Cl)cc(-c3ccc(F)cc3)c2C#N)C(=O)C1` [Compound 18, 6-(2,4-Dichlorophenyl)-4-(4-fluorophenyl)-2-(3-methyl-5-oxo-4,5-dihydro-1H-pyrazol-1-yl) nicotinonitrile], the melting point (in general, the temperature, or range, at which the solid turns liquid) lay in the range of 246 to 248 °C. In data set [1], the IC50 came out at 20.2 ± 2.26 µg/mL (≈ 46 µM) and the “activity class MCF-7” value was “b”. For the same compound, in data set [2], the IC50 amounted to 0.01 ± 0.003 µg/mL (≈ 0.0228 µM) and the “activity class NCI-H460” value was “a”. For the same compound, in the data set with SF-268 (CNS cancer), the IC50 was 20.2 ± 3.26 µg/mL (≈ 46 µM) and the “activity class SF-268” value is “b”. Moreover, the IC50 in data set [3] turned out to be 29.8 ± 4.88 µg/mL (≈ 67.9 µM).
In turn, `N#Cc1c(-c2ccc(F)cc2)cc(-c2ccc(Cl)cc2Cl)nc1OCC(=O)NN=Cc1ccc(F)cc1` [Compound 10, 2-[3-Cyano-6-(2,4-dichlorophenyl)-4-(4-fluorophenyl)pyridin-2-yloxy]-N′-(4-fluorobenzylidene)-acetohydrazide] gave a melting point of 219 to 221 °C. In data set [1], the IC50 turned out to be 30.6 ± 1.1 µg/mL (≈ 56.9 µM) and the “activity class MCF-7” value was “b”. Moreover, in data set [2], the IC50 was 30.7 ± 1.64 µg/mL (≈ 57.1 µM) and the “activity class NCI-H460” value is recorded as “b”. Also, in the data set with SF-268 (CNS cancer), the IC50 turned out to be 28.2 ± 8.83 µg/mL (≈ 52.4 µM) and the “activity class SF-268” value was “b”. Moreover, the IC50 in data set [3] turned out to be 19.8 ± 2.68 µg/mL (≈ 36.8 µM).
Compound `CC1CCCCN1c1nc(-c2ccc(Cl)cc2Cl)cc(-c2ccc(F)cc2)c1C#N` (centres unmarked) [Compound 15a, 6-(2,4-Dichlorophenyl)-4-(4-fluorophenyl)-2-(2-methylpiperidin-1-yl)nicotinonitrile] registered a melting point of 98 to 100 °C. Besides, in data set [1], the IC50 turned out to be 37.1 ± 7.34 µg/mL (≈ 84.2 µM) and the “activity class MCF-7” value is “c”. Further, in data set [2], the IC50 was 16.4 ± 2.32 µg/mL (≈ 37.2 µM) and the “activity class NCI-H460” value is “b”. In the data set on SF-268 (CNS cancer), the IC50 is 38.9 ± 2.63 µg/mL (≈ 88.4 µM) and the “activity class SF-268” value was “c”. This compound also showed an IC50 in data set [3] of 30.6 ± 6.21 µg/mL (≈ 69.5 µM).
`N#Cc1c(-c2ccc(F)cc2)cc(-c2ccc(Cl)cc2Cl)nc1NCc1ccc2c(c1)OCO2` [Compound 13, 2-(Benzo[d][1,3]dioxol-5-ylmethylamino)-6-(2,4-dichlorophenyl)-4-(4-fluorophenyl)nicotinonitrile] displayed a melting point of 149 to 151 °C. Further, in data set [1], the IC50 is 16.3 ± 1.87 µg/mL (≈ 33 µM) and the “activity class MCF-7” value is given as “b”. Also, in data set [2], the IC50 is 18.9 ± 1.03 µg/mL (≈ 38.4 µM) and the “activity class NCI-H460” value was “b”. Besides, in the data set with SF-268 (CNS cancer), the IC50 was 23.2 ± 4.12 µg/mL (≈ 47.2 µM) and the “activity class SF-268” value is listed as “b”. In data set [3], this compound had an IC50 of 20.4 ± 4.99 µg/mL (≈ 41.4 µM).
